Laboratory results: patent US9216173B2, “2-Pyridyl carboxamide-containing spleen tyrosine kinase (SYK) inhibitors” (Merck Sharp & Dohme Corp., priority 2011, dated 2015)

Target: T1, recombinant human GST-SYK (Homo sapiens, UniProt P43405)
T1 construct: purchased Carna Biosciences 08-176
Assay: Homogeneous Time-Resolved Fluorescence (HTRF) assay for the recombinant human Syk enzyme
Type: biochemical
Details: GST-hSYK 5 pM, ATP 25 μM, 10-dose titration 10 μM to 0.508 nM; read-out: IC50
How it was run: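 GST-hSYK fusion phosphorylates a peptide for 45 min at room temperature. Quenched with EDTA buffer containing 2 nM Eu-anti-phosphotyrosine antibody and 70 nM SA-APC. HTRF signal read after 30 min.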

Row | IC50 [nM] | Structure (SMILES)
1 | 120 | CCC(CN)Nc1cnc(C(N)=O)c(Nc2ccn(C)n2)c1 (stereo not shown) [Example 1.95, 5-{[1-(aminomethyl)propyl]amino}-3-[(1-methyl-1H-pyrazol-3-yl)amino]pyridine-2-carboxamide]
2 | 2900 | Cc1cc(C)nc(Nc2cc(N)cnc2C(N)=O)c1 [Example 9, 5-amino-3-[(4,6-dimethylpyridin-2-yl)amino]pyridine-2-carboxamide]

Same assay, conditions: GST-hSYK 5 pM, ATP 25 μM, 10-dose titration 10 μM to 0.508 nM; read-out: rhSYK Activity (IC50 rating)

Row | Structure (SMILES) | IC50 [nM]
3 | NC(=O)c1ncc(N[C@@H]2CCCC[C@@H]2N)cc1Nc1cccc(CN2CCOCC2)n1 [Example 1.60, 5-{[(1R,2S)-2-aminocyclohexyl]amino}-3-{[6-(morpholin-4-ylmethyl)pyridin-2-yl]amino}pyridine-2-carboxamide] | 100 to 1000
4 | CCC(CN)Nc1cnc(C(N)=O)c(Nc2ccn(C)n2)c1 (stereo not shown) [Example 1.95, 5-{[1-(aminomethyl)propyl]amino}-3-[(1-methyl-1H-pyrazol-3-yl)amino]pyridine-2-carboxamide] | 100 to 1000
5 | Cc1cc(O)cc(Nc2cc(N[C@@H]3CCCC[C@@H]3N)cnc2C(N)=O)n1 [Example 11, 5-{[(1R,2S)-2-aminocyclohexyl]amino}-3-[(4-hydroxy-6-methylpyridin-2-yl)amino]pyridine-2-carboxamide] | 10 to 100
6 | Cc1cc(C)nc(Nc2cc(N)cnc2C(N)=O)c1 [Example 9, 5-amino-3-[(4,6-dimethylpyridin-2-yl)amino]pyridine-2-carboxamide] | 1000 to 10000
7 | Cc1cc(C)nc(Nc2cc(NCC(N)Cc3ccccc3)cnc2C(N)=O)c1 (stereo not shown) [Example 2.12, 5-[(2-amino-3-phenylpropyl)amino]-3-[(4,6-dimethylpyridin-2-yl)amino]pyridine-2-carboxamide] | 10 to 100
8 | Cc1nc(Nc2cc(N[C@@H]3CCCC[C@@H]3N)cnc2C(N)=O)ccc1F [Example 1.24, 5-{[(1R,2S)-2-aminocyclohexyl]amino}-3-[(5-fluoro-6-methylpyridin-2-yl)amino]pyridine-2-carboxamide] | < 10
9 | Cc1cc(C)nc(Nc2cc(NC(CN)c3ccccc3)cnc2C(N)=O)c1 (stereo not shown) [Example 1.22, 5-[(2-amino-1-phenylethyl)amino]-3-[(4,6-dimethylpyridin-2-yl)amino]pyridine-2-carboxamide] | < 10
10 | Cc1cc(-c2cnn(C)c2)cc(Nc2cc(N[C@@H]3CCCC[C@@H]3N)cnc2C(N)=O)n1 [Example 4.3, 5-{[(1R,2S)-2-aminocyclohexyl]amino}-3-{[6-methyl-4-(1-methyl-1H-pyrazol-4-yl)pyridin-2-yl]amino}pyridine-2-carboxamide] | < 10
11 | CCNC(=O)Nc1cnc(C(N)=O)c(Nc2cc(C)cc(C)n2)c1 [Example 15, 3-[(4,6-dimethylpyridin-2-yl)amino]-5-[(ethylcarbamoyl)amino]pyridine-2-carboxamide] | 100 to 1000
12 | C[C@H](N)CNc1cnc(C(N)=O)c(Nc2ccn(-c3ccc(F)cc3)n2)c1 [Example 1.93, 5-{[(2S)-2-aminopropyl]amino}-3-{[1-(4-fluorophenyl)-1H-pyrazol-3-yl]amino}pyridine-2-carboxamide] | < 10
13 | Cc1cc(Nc2cc(N[C@@H]3CCCC[C@@H]3N)cnc2C(N)=O)nc(-c2cnn3c2CCC3)c1 [Example 1.115, 5-{[(1R,2S)-2-aminocyclohexyl]amino}-3-{[6-(5,6-dihydro-4H-pyrrolo[1,2-b]pyrazol-3-yl)-4-methylpyridin-2-yl]amino}pyridine-2-carboxamide] | < 10
14 | Cc1cc(-n2ccnn2)cc(Nc2cc(N[C@@H]3CCCC[C@@H]3N)cnc2C(N)=O)n1 [Example 1.75, 5-{[(1R,2S)-2-aminocyclohexyl]amino}-3-{[6-methyl-4-(1H-1,2,3-triazol-1-yl)pyridin-2-yl]amino}pyridine-2-carboxamide] | < 10
15 | Cc1nc(Nc2cc(N[C@@H]3CCCC[C@@H]3N)cnc2C(N)=O)ccc1-c1cccc(C(O)C(F)F)c1 (stereo partly drawn) [Example 3.1, 5-{[(1R,2S)-2-aminocyclohexyl]amino}-3-({5-[3-(2,2-difluoro-1-hydroxyethyl)phenyl]-6-methylpyridin-2-yl}amino)pyridine-2-carboxamide] | < 10
16 | CNC(=O)C(N)CNc1cnc(C(N)=O)c(Nc2cc(C)cc(C)n2)c1 (stereo not shown) [Example 2.1, 5-{[2-amino-3-(methylamino)-3-oxopropyl]amino}-3-[(4,6-dimethylpyridin-2-yl)amino]pyridine-2-carboxamide] | 100 to 1000
17 | Cc1cc(C)nc(Nc2cc(N[C@H]3CCC[C@H]3N)cnc2C(N)=O)c1 (single isomer, unassigned) [Example 1.26] | < 10

Results, then the compound that gave them:

Row | IC50 [nM] | Structure (SMILES)
18 | < 10 | CCc1cccc(Nc2cc(N[C@H]3[C@@H](N)CCCC3(F)F)cnc2C(N)=O)n1 [Example 1.88, 5-{[(1S,6S)-6-amino-2,2-difluorocyclohexyl]amino}-3-[(6-ethylpyridin-2-yl)amino]pyridine-2-carboxamide]
19 | < 10 | C[C@H](N)CNc1cnc(C(N)=O)c(Nc2cccc(C(F)(F)F)n2)c1 [Example 1.104, 5-{[(2S)-2-aminopropyl]amino}-3-{[6-(trifluoromethyl)pyridin-2-yl]amino}pyridine-2-carboxamide]
20 | < 10 | Cc1cc(-n2nccn2)cc(Nc2cc(N[C@@H]3CCCC[C@@H]3N)cnc2C(N)=O)n1 [Example 1.76, 5-{[(1R,2S)-2-aminocyclohexyl]amino}-3-{[6-methyl-4-(2H-1,2,3-triazol-2-yl)pyridin-2-yl]amino}pyridine-2-carboxamide]
21 | < 10 | NC(=O)c1ncc(N[C@@H]2CCCC[C@@H]2N)cc1Nc1cccc(-c2ccccn2)n1 [Example 1.42, 5-{[(1R,2S)-2-aminocyclohexyl]amino}-3-(2,2′-bipyridin-6-ylamino)pyridine-2-carboxamide]
22 | < 10 | NC(=O)c1ncc(N[C@@H]2CCCC[C@@H]2N)cc1Nc1cc(Cl)cc(Cl)n1 [Example 1.73, 5-{[(1R,2S)-2-aminocyclohexyl]amino}-3-[(4,6-dichloropyridin-2-yl)amino]pyridine-2-carboxamide]
23 | < 10 | Cc1nc(Nc2cc(NC[C@H](C)N)cnc2C(N)=O)ccc1-c1cn(C)cn1 [Example 1.10, 5-{[(2S)-2-aminopropyl]amino}-3-{[6-methyl-5-(1-methyl-1H-imidazol-4-yl)pyridin-2-yl]amino}pyridine-2-carboxamide]
24 | < 10 | COC[C@H](N)CNc1cnc(C(N)=O)c(Nc2cccc(-n3nccn3)n2)c1 [Example 1.82, 5-{[(2R)-2-amino-3-methoxypropyl]amino}-3-{[6-(2H-1,2,3-triazol-2-yl)pyridin-2-yl]amino}pyridine-2-carboxamide]
25 | < 10 | CCc1cccc(Nc2cc(NC[C@@H](N)COC)cnc2C(N)=O)n1 [Example 1.100, 5-{[(2R)-2-amino-3-methoxypropyl]amino}-3-[(6-ethylpyridin-2-yl)amino]pyridine-2-carboxamide]
26 | < 10 | Cc1nc(Nc2cc(N[C@@H]3CCCC[C@@H]3N)cnc2C(N)=O)ccc1-c1cnn(C)c1 [Example 1.11, 5-{[(1R,2S)-2-aminocyclohexyl]amino}-3-{[6-methyl-5-(1-methyl-1H-pyrazol-4-yl)pyridin-2-yl]amino}pyridine-2-carboxamide]
27 | < 10 | Cc1cc(Cl)cc(Nc2cc(N[C@@H]3CCCC[C@@H]3N)cnc2C(N)=O)n1 [Example 1.12, 5-{[(1R,2S)-2-aminocyclohexyl]amino}-3-[(4-chloro-6-methylpyridin-2-yl)amino]pyridine-2-carboxamide]
28 | < 10 | Cc1nc(Nc2cc(N[C@@H]3CCCC[C@@H]3N)cnc2C(N)=O)ccc1-n1ccnn1 [Example 1.74, 5-{[(1R,2S)-2-aminocyclohexyl]amino}-3-{[6-methyl-5-(1H-1,2,3-triazol-1-yl)pyridin-2-yl]amino}pyridine-2-carboxamide]
